# Source: ChEMBL document CHEMBL5724806, “Unraveling interindividual differences and functional consequences of gut microbial metabolism of immunosuppressants” (2024)
# Experiments:
# Format in all cases: ADME
# [1] = The drug is tested on Bifidobacterium adolescentis strain: DSM20083 for biotransformation under anaerobic condition. The drug concentrations were measured over 6 timepoints collected between 0 and 12 hours of incubation by liquid-chromatography-coupled mass spectrometry (LC–MS); parameters: dose 5 uM, timepoint 0, 1.5, 3, 6, 9, 12 hours; details: 5 µM
# [2] = The drug is tested on Collinsella aerofaciens strain: DSM3979 for biotransformation under anaerobic condition. The drug concentrations were measured over 6 timepoints collected between 0 and 12 hours of incubation by liquid-chromatography-coupled mass spectrometry (LC–MS); parameters: dose 5 uM, timepoint 0, 1.5, 3, 6, 9, 12 hours; details: 5 µM
# [3] = The drug is tested on Parabacteroides distasonis strain: DSM20701 for biotransformation under anaerobic condition. The drug concentrations were measured over 6 timepoints collected between 0 and 12 hours of incubation by liquid-chromatography-coupled mass spectrometry (LC–MS); parameters: dose 5 uM, timepoint 0, 1.5, 3, 6, 9, 12 hours; details: 5 µM
# [4] = The drug is tested on Blautia hansenii strain: DSM20583 for biotransformation under anaerobic condition. The drug concentrations were measured over 6 timepoints collected between 0 and 12 hours of incubation by liquid-chromatography-coupled mass spectrometry (LC–MS); parameters: dose 5 uM, timepoint 0, 1.5, 3, 6, 9, 12 hours; details: 5 µM
# [5] = The drug is tested on Clostridium bolteae strain: DSM15670 for biotransformation under anaerobic condition. The drug concentrations were measured over 6 timepoints collected between 0 and 12 hours of incubation by liquid-chromatography-coupled mass spectrometry (LC–MS); parameters: dose 5 uM, timepoint 0, 1.5, 3, 6, 9, 12 hours; details: enterocloster bolteae, 5 µM
# [6] = The drug is tested on Clostridium scindens strain: DSM5676 for biotransformation under anaerobic condition. The drug concentrations were measured over 6 timepoints collected between 0 and 12 hours of incubation by liquid-chromatography-coupled mass spectrometry (LC–MS); parameters: dose 5 uM, timepoint 0, 1.5, 3, 6, 9, 12 hours; details: 5 µM
# [7] = The drug is tested on Faecalibacterium prausnitzii strain: DSM17677 for biotransformation under anaerobic condition. The drug concentrations were measured over 6 timepoints collected between 0 and 12 hours of incubation by liquid-chromatography-coupled mass spectrometry (LC–MS); parameters: dose 5 uM, timepoint 0, 1.5, 3, 6, 9, 12 hours; details: faecalibacterium duncaniae, 5 µM
# [8] = The drug is tested on Lactobacillus gasseri strain: DSM20243 for biotransformation under anaerobic condition. The drug concentrations were measured over 6 timepoints collected between 0 and 12 hours of incubation by liquid-chromatography-coupled mass spectrometry (LC–MS); parameters: dose 5 uM, timepoint 0, 1.5, 3, 6, 9, 12 hours; details: 5 µM
# [9] = The drug is tested on Lactobacillus paracasei strain: ATCC27092 for biotransformation under anaerobic condition. The drug concentrations were measured over 6 timepoints collected between 0 and 12 hours of incubation by liquid-chromatography-coupled mass spectrometry (LC–MS); parameters: dose 5 uM, timepoint 0, 1.5, 3, 6, 9, 12 hours; details: lacticaseibacillus paracasei, 5 µM
# [10] = The drug is tested on Ruminococcus gnavus strain: ATCC29149 for biotransformation under anaerobic condition. The drug concentrations were measured over 6 timepoints collected between 0 and 12 hours of incubation by liquid-chromatography-coupled mass spectrometry (LC–MS); parameters: dose 5 uM, timepoint 0, 1.5, 3, 6, 9, 12 hours; details: mediterraneibacter gnavus, 5 µM
# [11] = The drug is tested on Streptococcus anginosus strain: DSM20563 for biotransformation under anaerobic condition. The drug concentrations were measured over 6 timepoints collected between 0 and 12 hours of incubation by liquid-chromatography-coupled mass spectrometry (LC–MS); parameters: dose 5 uM, timepoint 0, 1.5, 3, 6, 9, 12 hours; details: 5 µM
# [12] = The drug is tested on Streptococcus mitis strain: DSM12643 for biotransformation under anaerobic condition. The drug concentrations were measured over 6 timepoints collected between 0 and 12 hours of incubation by liquid-chromatography-coupled mass spectrometry (LC–MS); parameters: dose 5 uM, timepoint 0, 1.5, 3, 6, 9, 12 hours; details: 5 µM
# [13] = The drug is tested on Streptococcus sanguinis strain: DSM20567 for biotransformation under anaerobic condition. The drug concentrations were measured over 6 timepoints collected between 0 and 12 hours of incubation by liquid-chromatography-coupled mass spectrometry (LC–MS); parameters: dose 5 uM, timepoint 0, 1.5, 3, 6, 9, 12 hours; details: 5 µM
# [14] = The drug is tested on Actinomyces graevenitzii strain: DSM15540 for biotransformation under microaerobic condition. The drug concentrations were measured over 6 timepoints collected between 0 and 12 hours of incubation by liquid-chromatography-coupled mass spectrometry (LC–MS); parameters: dose 5 uM, timepoint 0, 1.5, 3, 6, 9, 12 hours; details: 5 µM
# [15] = The drug is tested on Actinomyces naeslundi strain: DSM43013 for biotransformation under microaerobic condition. The drug concentrations were measured over 6 timepoints collected between 0 and 12 hours of incubation by liquid-chromatography-coupled mass spectrometry (LC–MS); parameters: dose 5 uM, timepoint 0, 1.5, 3, 6, 9, 12 hours; details: actinomyces naeslundii, 5 µM
# [16] = The drug is tested on Gemella morbillorum strain: DSM20572 for biotransformation under microaerobic condition. The drug concentrations were measured over 6 timepoints collected between 0 and 12 hours of incubation by liquid-chromatography-coupled mass spectrometry (LC–MS); parameters: dose 5 uM, timepoint 0, 1.5, 3, 6, 9, 12 hours; details: 5 µM
# [17] = The drug is tested on Lactobacillus fermentum strain: DSM20052 for biotransformation under microaerobic condition. The drug concentrations were measured over 6 timepoints collected between 0 and 12 hours of incubation by liquid-chromatography-coupled mass spectrometry (LC–MS); parameters: dose 5 uM, timepoint 0, 1.5, 3, 6, 9, 12 hours; details: limosilactobacillus fermentum, 5 µM
# [18] = The drug is tested on Lactobacillus gasseri strain: DSM20243 for biotransformation under microaerobic condition. The drug concentrations were measured over 6 timepoints collected between 0 and 12 hours of incubation by liquid-chromatography-coupled mass spectrometry (LC–MS); parameters: dose 5 uM, timepoint 0, 1.5, 3, 6, 9, 12 hours; details: 5 µM
# [19] = The drug is tested on Streptococcus mitis strain: DSM12643 for biotransformation under microaerobic condition. The drug concentrations were measured over 6 timepoints collected between 0 and 12 hours of incubation by liquid-chromatography-coupled mass spectrometry (LC–MS); parameters: dose 5 uM, timepoint 0, 1.5, 3, 6, 9, 12 hours; details: 5 µM
# [20] = The drug is tested on the gut metagenome community of A-01 with ENA study accession number: PRJEB31790 for biotransformation under anaerobic condition. The drug concentrations were measured over 7 timepoints collected between 0 and 12 hours of incubation by liquid-chromatography-coupled mass spectrometry (LC–MS); parameters: dose 5 uM, timepoint 0, 0.75, 1.5, 3, 6, 9, 12 hours; details: 5 µM
# [21] = The drug is tested on the gut metagenome community of A-03 with ENA study accession number: PRJEB31790 for biotransformation under anaerobic condition. The drug concentrations were measured over 7 timepoints collected between 0 and 12 hours of incubation by liquid-chromatography-coupled mass spectrometry (LC–MS); parameters: dose 5 uM, timepoint 0, 0.75, 1.5, 3, 6, 9, 12 hours; details: 5 µM
# [22] = The drug is tested on the gut metagenome community of A-09 with ENA study accession number: PRJEB31790 for biotransformation under anaerobic condition. The drug concentrations were measured over 7 timepoints collected between 0 and 12 hours of incubation by liquid-chromatography-coupled mass spectrometry (LC–MS); parameters: dose 5 uM, timepoint 0, 0.75, 1.5, 3, 6, 9, 12 hours; details: 5 µM
# [23] = The drug is tested on the gut metagenome community of A-10 with ENA study accession number: PRJEB31790 for biotransformation under anaerobic condition. The drug concentrations were measured over 7 timepoints collected between 0 and 12 hours of incubation by liquid-chromatography-coupled mass spectrometry (LC–MS); parameters: dose 5 uM, timepoint 0, 0.75, 1.5, 3, 6, 9, 12 hours; details: 5 µM
# [24] = The drug is tested on the gut metagenome community of T-01 with ENA study accession number: PRJEB31790 for biotransformation under anaerobic condition. The drug concentrations were measured over 7 timepoints collected between 0 and 12 hours of incubation by liquid-chromatography-coupled mass spectrometry (LC–MS); parameters: dose 5 uM, timepoint 0, 0.75, 1.5, 3, 6, 9, 12 hours; details: 5 µM
# [25] = The drug is tested on the gut metagenome community of P-01 with ENA study accession number: PRJEB31790 for biotransformation under microaerobic condition. The drug concentrations were measured over 7 timepoints collected between 0 and 12 hours of incubation by liquid-chromatography-coupled mass spectrometry (LC–MS); parameters: dose 5 uM, timepoint 0, 0.75, 1.5, 3, 6, 9, 12 hours; details: 5 µM
# [26] = The drug is tested on the gut metagenome community of P-03 with ENA study accession number: PRJEB31790 for biotransformation under microaerobic condition. The drug concentrations were measured over 7 timepoints collected between 0 and 12 hours of incubation by liquid-chromatography-coupled mass spectrometry (LC–MS); parameters: dose 5 uM, timepoint 0, 0.75, 1.5, 3, 6, 9, 12 hours; details: 5 µM
SMILES,Bacterial Biotransformation [1],Bacterial Biotransformation [2],Bacterial Biotransformation [3],Bacterial Biotransformation [4],Bacterial Biotransformation [5],Bacterial Biotransformation [6],Bacterial Biotransformation [7],Bacterial Biotransformation [8],Bacterial Biotransformation [9],Bacterial Biotransformation [10],Bacterial Biotransformation [11],Bacterial Biotransformation [12],Bacterial Biotransformation [13],Bacterial Biotransformation [14],Bacterial Biotransformation [15],Bacterial Biotransformation [16],Bacterial Biotransformation [17],Bacterial Biotransformation [18],Bacterial Biotransformation [19],Bacterial Biotransformation [20],further results
COc1c(C)c2c(c(O)c1C/C=C(\C)CCC(=O)O)C(=O)OC2 [MYCOPHENOLIC ACID],Compound NOT metabolized,Compound NOT metabolized,Compound NOT metabolized,Compound NOT metabolized,Compound NOT metabolized,Compound NOT metabolized,Compound NOT metabolized,Compound NOT metabolized,Compound NOT metabolized,Compound NOT metabolized,Compound NOT metabolized,Compound NOT metabolized,Compound NOT metabolized,Compound NOT metabolized,Compound NOT metabolized,Compound NOT metabolized,Compound NOT metabolized,Compound NOT metabolized,Compound NOT metabolized,Compound NOT metabolized,Bacterial Biotransformation [21]: Compound NOT metabolized; Bacterial Biotransformation [22]: Compound NOT metabolized; Bacterial Biotransformation [23]: Compound NOT metabolized; Bacterial Biotransformation [24]: Compound NOT metabolized; Bacterial Biotransformation [25]: Compound NOT metabolized; Bacterial Biotransformation [26]: Compound NOT metabolized
C[C@]12C=CC(=O)C=C1CC[C@@H]1[C@@H]2[C@@H](O)C[C@@]2(C)[C@H]1CC[C@]2(O)C(=O)CO [PREDNISOLONE],Compound NOT metabolized,Compound NOT metabolized,Compound NOT metabolized,Compound NOT metabolized,Compound NOT metabolized,Compound metabolized,Compound NOT metabolized,Compound NOT metabolized,Compound NOT metabolized,Compound metabolized,Compound NOT metabolized,Compound NOT metabolized,Compound NOT metabolized,Compound NOT metabolized,Compound NOT metabolized,Compound NOT metabolized,Compound NOT metabolized,Compound NOT metabolized,Compound NOT metabolized,Compound metabolized,Bacterial Biotransformation [21]: Compound metabolized; Bacterial Biotransformation [22]: Compound metabolized; Bacterial Biotransformation [23]: Compound metabolized; Bacterial Biotransformation [24]: Compound NOT metabolized; Bacterial Biotransformation [25]: Compound metabolized; Bacterial Biotransformation [26]: Compound metabolized
C[C@]12C=CC(=O)C=C1CC[C@@H]1[C@@H]2C(=O)C[C@@]2(C)[C@H]1CC[C@]2(O)C(=O)CO [PREDNISONE],Compound NOT metabolized,Compound NOT metabolized,Compound NOT metabolized,Compound NOT metabolized,Compound NOT metabolized,Compound metabolized,Compound metabolized,Compound NOT metabolized,Compound NOT metabolized,Compound metabolized,Compound NOT metabolized,Compound NOT metabolized,Compound NOT metabolized,Compound NOT metabolized,Compound NOT metabolized,Compound NOT metabolized,Compound NOT metabolized,Compound NOT metabolized,Compound NOT metabolized,Compound metabolized,Bacterial Biotransformation [21]: Compound metabolized; Bacterial Biotransformation [22]: Compound metabolized; Bacterial Biotransformation [23]: Compound metabolized; Bacterial Biotransformation [24]: Compound metabolized; Bacterial Biotransformation [25]: Compound metabolized; Bacterial Biotransformation [26]: Compound metabolized
